Measured values taken from US20230391760A1, “HETEROCYCLIC GLP-1 AGONISTS” (Gasherbrum Bio, Inc., priority 2020, published 2023).

Biological target: GLP-1 Receptor (Homo sapiens, UniProt P43220)
Test: GLP-1R agonist cAMP stimulation assay (HEK293/GLP1R/CRE-LUC cells, cAMP dynamic 2 Kit)
Format: cell-based
Settings: HEK293/CRE-Luc cell line stably expressing the GLP-1 Receptor, 30 min at 37° C.
Outline: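 cAMP measured by HTRF competition (d2-labelled cAMP with cryptate antibody, 1 h, room temperature, protected from light). Before that, GLP1R/CRE-Luc HEK293 cells (1000/well) were exposed for 30 min at 37 °C to half-log compound dilutions in DPBS containing IBMX 0.5 mM and BSA 0.1%.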

Sequence of GLP-1 Receptor (P43220 24-463, species assumed): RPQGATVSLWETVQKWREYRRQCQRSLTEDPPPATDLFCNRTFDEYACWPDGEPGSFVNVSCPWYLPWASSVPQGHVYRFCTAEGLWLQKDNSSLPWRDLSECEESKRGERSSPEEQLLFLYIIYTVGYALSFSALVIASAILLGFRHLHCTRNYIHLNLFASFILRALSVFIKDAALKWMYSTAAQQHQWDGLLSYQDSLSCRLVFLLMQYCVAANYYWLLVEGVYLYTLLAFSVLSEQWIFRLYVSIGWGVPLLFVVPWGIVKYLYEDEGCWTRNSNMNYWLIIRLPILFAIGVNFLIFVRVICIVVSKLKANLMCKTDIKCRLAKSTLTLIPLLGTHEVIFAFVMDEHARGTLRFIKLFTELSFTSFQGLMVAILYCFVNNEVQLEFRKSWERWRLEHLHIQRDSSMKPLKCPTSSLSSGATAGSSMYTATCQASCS

`CC1(c2ccc(Cl)cc2)Oc2cccc(C3CCN(Cc4nc5cc(-c6nnc(C(F)(F)F)[nH]6)cnc5n4C[C@@H]4CCO4)CC3)c2O1` (stereo partly drawn) [Compound 225a, 4-[2-(4-chlorophenyl)-2-methyl-2H-1,3-benzodioxol-4-yl]-1-[(3-{[(2S)-oxetan-2-yl]methyl}-6-[5-(trifluoromethyl)-4H-1,2,4-triazol-3-yl]-3H-imidazo[4,5-b]pyridin-2-yl)methyl]piperidine] was tested. Which EC50 did it give?
The EC50 was 0.064 nM.

With `N#Cc1nnc(-c2cc3nc(CN4CCC(c5cccc(OCc6ccc(Cl)cc6F)n5)CC4)n(C[C@@H]4CCO4)c3nn2)[nH]1` [Compound 526a, 5-{6-[(4-{6-[(4-chloro-2-fluorophenyl)methoxy]pyridin-2-yl}piperidin-1-yl)methyl]-7-{[(2S)-oxetan-2-yl]methyl}-7H-imidazo[4,5-c]pyridazin-3-yl}-4H-1,2,4-triazole-3-carbonitrile] as the molecule, how does the EC50 read?
Its EC50 is 0.017 nM.

`CC1(c2ccccc2)Oc2cccc(C3CCN(Cc4nc5cc(-c6nnc(C(F)(F)F)[nH]6)ccc5n4C[C@@H]4CCO4)CC3)c2O1` (stereo partly drawn) [Compound 405a, 2-{[4-(2-methyl-2-phenyl-2H-1,3-benzodioxol-4-yl)piperidin-1-yl]methyl}-1-{[(2S)-oxetan-2-yl]methyl}-5-[5-(trifluoromethyl)-4H-1,2,4-triazol-3-yl]-1H-1,3-benzodiazole] was tested. Which EC50 did it give?
Its EC50 is 0.53 nM.

With `C[C@]1(c2ccc(Cl)cc2F)Oc2cccc(C3CCN(Cc4nc5cc(-c6nnc(C(F)(F)F)[nH]6)ncc5n4C[C@@H]4CCCO4)CC3)c2O1` [Compound 426a, 4-[(2S)-2-(4-chloro-2-fluorophenyl)-2-methyl-2H-1,3-benzodioxol-4-yl]-1-[(3-{[(2S)-oxolan-2-yl]methyl}-6-[5-(trifluoromethyl)-4H-1,2,4-triazol-3-yl]-3H-imidazo[4,5-c]pyridin-2-yl)methyl]piperidine] as the molecule, how does the EC50 read?
The EC50 was 0.088 nM.

`CC1(c2ccc(Cl)cc2)Oc2cccc(C3CCN(Cc4nc5cc(-c6noc(=O)[nH]6)ncc5n4C[C@@H]4CCO4)CC3)c2O1` (stereo partly drawn) [Compound 347a, 3-[2-({4-[2-(4-chlorophenyl)-2-methyl-2H-1,3-benzodioxol-4-yl]piperidin-1-yl}methyl)-3-{[(2S)-oxetan-2-yl]methyl}-3H-imidazo[4,5-c]pyridin-6-yl]-4,5-dihydro-1,2,4-oxadiazol-5-one] was tested. Which EC50 did it give?
Its EC50 is 0.022 nM.

`CC1(c2ccc(Cl)cn2)Oc2cccc(C3CCN(Cc4nc5cc(-c6n[nH]c(C(F)(F)F)n6)ncc5n4C[C@@H]4CCO4)CC3)c2O1` (stereo partly drawn) [Compound 344a, 5-chloro-2-(2-methyl-4-{1-[(3-{[(2S)-oxetan-2-yl]methyl}-6-[5-(trifluoromethyl)-4H-1,2,4-triazol-3-yl]-3H-imidazo[4,5-c]pyridin-2-yl)methyl]piperidin-4-yl}-2H-1,3-benzodioxol-2-yl)pyridine] was tested. Which EC50 did it give?
The EC50 was 0.022 nM.

Which EC50 does the source give for `N#Cc1ccc(COc2nc(C3CCN(Cc4nc5cc(-c6nnc(C(F)(F)F)[nH]6)ncc5n4C[C@@H]4CCO4)CC3)ccc2F)c(F)c1` [Compound 485a, 3-fluoro-4-{[(3-fluoro-6-{1-[(3-{[(2S)-oxetan-2-yl]methyl}-6-[5-(trifluoromethyl)-4H-1,2,4-triazol-3-yl]-3H-imidazo[4,5-c]pyridin-2-yl)methyl]piperidin-4-yl}pyridin-2-yl)oxy]methyl}benzonitrile] here?
The EC50 was 0.0096 nM.

`C[C@]1(c2ccc(Cl)cc2F)Oc2cccc(C3CCN(Cc4nc5cc(-c6nnc[nH]6)ncc5n4C[C@@H]4CCO4)CC3)c2O1` [Compound 440a, 4-[(2S)-2-(4-chloro-2-fluorophenyl)-2-methyl-2H-1,3-benzodioxol-4-yl]-1-[(3-{[(2S)-oxetan-2-yl]methyl}-6-(4H-1,2,4-triazol-3-yl)-3H-imidazo[4,5-c]pyridin-2-yl)methyl]piperidine] was tested. Which EC50 did it give?
Its EC50 is 0.04 nM.

With `CC(=O)Nc1ccc2c(c1)nc(CN1CCC(c3cccc4c3OC[C@@H](c3ccc(Cl)cc3F)O4)CC1)n2C[C@@H]1CCO1` [Compound 114a, N-(2-((4-((R)-2-(4-chloro-2-fluorophenyl)-2,3-dihydrobenzo[b][1,4]dioxin-5-yl)piperidin-1-yl)methyl)-1-(((S)-oxetan-2-yl)methyl)-1H-benzo[d]imidazol-5-yl)acetamide] as the molecule, how does the EC50 read?
The EC50 was 58.9 nM.

Which EC50 does the source give for `C[C@H]1CN(c2cccc(OCc3ccc(Cl)cc3F)n2)CCN1Cc1nc2cc(-c3nnc(C(F)(F)F)[nH]3)ncc2n1C[C@@H]1CCO1` [Compound 480a, (2S)-4-{6-[(4-chloro-2-fluorophenyl)methoxy]pyridin-2-yl}-2-methyl-1-[(3-{[(2S)-oxetan-2-yl]methyl}-6-[5-(trifluoromethyl)-4H-1,2,4-triazol-3-yl]-3H-imidazo[4,5-c]pyridin-2-yl)methyl]piperazine] here?
Its EC50 is 0.018 nM.

How did the EC50 turn out when `N#Cc1nnc(-c2cc3nc(CN4CCC(c5cccc(OCc6ccc(Cl)cc6F)n5)CC4)n(C[C@@H]4CCO4)c3cn2)[nH]1` [Compound 484a, 5-{2-[(4-{6-[(4-chloro-2-fluorophenyl)methoxy]pyridin-2-yl}piperidin-1-yl)methyl]-3-{[(2S)-oxetan-2-yl]methyl}-3H-imidazo[4,5-c]pyridin-6-yl}-4H-1,2,4-triazole-3-carbonitrile] was run?
The EC50 was 0.0063 nM.

How did the EC50 turn out when `Fc1cc(Cl)ccc1COc1cc(C2=CCN(Cc3nc4cc(-c5nnc(C(F)(F)F)[nH]5)cnc4n3C[C@@H]3CCO3)CC2)ccc1F` [Compound 294a, 4-{3-[(4-chloro-2-fluorophenyl)methoxy]-4-fluorophenyl}-1-[(3-{[(2S)-oxetan-2-yl]methyl}-6-[5-(trifluoromethyl)-4H-1,2,4-triazol-3-yl]-3H-imidazo[4,5-b]pyridin-2-yl)methyl]-1,2,3,6-tetrahydropyridine] was run?
Its EC50 is 0.47 nM.

Which EC50 does the source give for `CC(=O)Nc1ccc2c(c1)nc(CN1CC=C(c3cccc(OCc4ccc(Cl)cc4F)n3)CC1)n2C[C@@H]1CCO1` [Compound 135a, N-{2-[(4-{6-[(4-chloro-2-fluorophenyl)methoxy]pyridin-2-yl}-1,2,3,6-tetrahydropyridin-1-yl)methyl]-1-{[(2S)-oxetan-2-yl]methyl}-1H-1,3-benzodiazol-5-yl}acetamide] here?
The EC50 was 0.64 nM.

For `Cc1ccc(C(=O)Nc2ccc3c(c2)nc(CN2CCC(c4cccc(OCc5ccc(Cl)cc5F)n4)CC2)n3C[C@@H]2CCO2)cn1` [Compound 173a, N-{2-[(4-{6-[(4-chloro-2-fluorophenyl)methoxy]pyridin-2-yl}piperidin-1-yl)methyl]-1-{[(2S)-oxetan-2-yl]methyl}-1H-1,3-benzodiazol-5-yl}-6-methylpyridine-3-carboxamide], which EC50 is on record?
The EC50 was 0.26 nM.

`C[C@]1(c2ccc(Cl)cc2F)Oc2cccc(C3CCN(Cc4nc5cc(-c6nnc(C7CC7)[nH]6)ccc5n4C[C@@H]4CCO4)CC3)c2O1` [Compound 283a, 2-({4-[(2S)-2-(4-chloro-2-fluorophenyl)-2-methyl-2H-1,3-benzodioxol-4-yl]piperidin-1-yl}methyl)-5-(5-cyclopropyl-4H-1,2,4-triazol-3-yl)-1-{[(2S)-oxetan-2-yl]methyl}-1H-1,3-benzodiazole] was tested. Which EC50 did it give?
Its EC50 is 0.1 nM.

`CC1(c2ccc(Cl)cc2F)Oc2cccc(C3CCN(Cc4nc5cc(-c6nnc(C(F)(F)F)[nH]6)ccc5n4C[C@@H]4CCO4)CC3)c2O1` (single isomer, unassigned) [Compound 229c] was tested. Which EC50 did it give?
Its EC50 is 0.04 nM.

How did the EC50 turn out when `C[C@]1(c2ccc(Cl)cn2)Oc2cccc(C3CCN(Cc4nc5cc(-c6noc(=O)[nH]6)nnc5n4C[C@@H]4CCO4)CC3)c2O1` [Compound 463a, 3-[6-({4-[(2S)-2-(5-chloropyridin-2-yl)-2-methyl-2H-1,3-benzodioxol-4-yl]piperidin-1-yl}methyl)-7-{[(2S)-oxetan-2-yl]methyl}-7H-imidazo[4,5-c]pyridazin-3-yl]-4,5-dihydro-1,2,4-oxadiazol-5-one] was run?
Its EC50 is 0.35 nM.

For `Fc1cc(Cl)ccc1COc1cccc(C2CCN(Cc3nc4cc(-c5ccn(C6CCCOC6)n5)ccc4n3C[C@@H]3CCO3)CC2)n1` (stereo partly drawn) [Compound 216a, 2-[(4-{6-[(4-chloro-2-fluorophenyl)methoxy]pyridin-2-yl}piperidin-1-yl)methyl]-5-[1-(oxan-3-yl)-1H-pyrazol-3-yl]-1-{[(2S)-oxetan-2-yl]methyl}-1H-1,3-benzodiazole], which EC50 is on record?
Its EC50 is 8.8 nM.

With `C[C@]1(c2ccc(Cl)cc2F)Oc2cccc(C3CCN(Cc4nc5cc(-c6noc(=O)[nH]6)cnc5n4C[C@@H]4CCO4)CC3)c2O1` [Compound 262, 3-[2-({4-[(2S)-2-(4-chloro-2-fluorophenyl)-2-methyl-2H-1,3-benzodioxol-4-yl]piperidin-1-yl}methyl)-3-{[(2S)-oxetan-2-yl]methyl}-3H-imidazo[4,5-b]pyridin-6-yl]-4,5-dihydro-1,2,4-oxadiazol-5-one] as the molecule, how does the EC50 read?
The EC50 was 0.071 nM.

Which EC50 does the source give for `CC1(c2ccc(Cl)cc2F)Oc2cccc(C3CCN(Cc4nc5cc(-c6nnn[nH]6)ncc5n4C[C@@H]4CCO4)CC3)c2O1` (stereo partly drawn) [Compound 218a, 4-[2-(4-chloro-2-fluorophenyl)-2-methyl-2H-1,3-benzodioxol-4-yl]-1-[(3-{[(2S)-oxetan-2-yl]methyl}-6-(1H-1,2,3,4-tetrazol-5-yl)-3H-imidazo[4,5-c]pyridin-2-yl)methyl]piperidine] here?
Its EC50 is 0.013 nM.

`CS(=O)(=O)Nc1ccc2c(c1)nc(CN1CCC(c3cccc(OCc4ccc(Cl)cc4F)n3)CC1)n2C[C@@H]1CCO1` [Compound 108a, (S)—N-(2-((4-(6-((4-chloro-2-fluorobenzyl)oxy)pyridin-2-yl)piperidin-1-yl)methyl)-1-(oxetan-2-ylmethyl)-1H-benzo[d]imidazol-5-yl)methanesulfonamide] was tested. Which EC50 did it give?
The EC50 was 155 nM.

Which EC50 does the source give for `C[C@]1(c2ccc(Cl)cc2F)Oc2cccc(C3CCN(Cc4nc5cc(-c6noc(=O)[nH]6)ncc5n4CC4(C#N)CC4)CC3)c2O1` [Compound 346a, 1-{[2-({4-[(2S)-2-(4-chloro-2-fluorophenyl)-2-methyl-2H-1,3-benzodioxol-4-yl]piperidin-1-yl}methyl)-6-(5-oxo-4,5-dihydro-1,2,4-oxadiazol-3-yl)-3H-imidazo[4,5-c]pyridin-3-yl]methyl}cyclopropane-1-carbonitrile] here?
Its EC50 is 0.015 nM.
